In US20230278993A1, “NOVEL TRICYCLIC AROMATIC HETEROCYCLIC COMPOUND AND PREPARATION METHOD THEREFOR, PHARMACEUTICAL COMPOSITION AND USE THEREOF” (SHANGHAI LONGWOOD BIOPHARMACEUTICALS CO., LTD., priority 2020, published 2023):

The compounds below were run against PD-1/PD-L1 (Homo sapiens (Human), UniProt Q9NZQ7) (assay: PD-1/PD-L1 homogeneous time-resolved fluorescence (HTRF) binding assay). Conditions: recombinant human PD-L1 (19-238) His-tagged, human PD-1 (25-167) Fc tag; 25° C., PBS pH 7.4.
Method: Example A: PD-1/PD-L1 Homogeneous Time-Resolved Fluorescence (HTRF) Binding Assay
Assays were performed in standard black 384-well polystyrene plates and a final volume was 20 μL. The inhibitor was first serially diluted with DMSO and added to the wells of the plate, followed by the addition of other reaction components. The final concentration of DMSO in the assay was 1%. Assays were performed at 25° C. in PBS buffer (pH 7.4) containing 0.05% Tween-20 and 0.1% BSA. Recombinant human PD-L1 protein (19-238) with a His-tagged at the C-terminus was purchased from AcroBiosystems (PD1-H5229). Recombinant human PD-1 protein (25-167) with an Fc tag at the C-terminus was also purchased from AcroBiosystems (PD1-H5257). The PD-L1 and PD-1 proteins were diluted in assay buffer and then […] of the solution was extracted and added to the wells of the plate. Plates were centrifuged and proteins and inhibitors were preincubated for 40 minutes. After incubation, […] of HTRF detection buffer containing europium […] labeled anti-human IgG (PerkinElmer-AD0212), Fc-specific and anti-His SureLight@-Allophycocyanin (APC, PerkinElmer-AD0059H) conjugated antibodies was added. After centrifugation, the plates were incubated at 25° C. for 60 minutes. Data was read in a PHERAstar FS plate reader (665 nm/620 nm ratio). Final concentrations in the assay were ˜3 nM of PD1, 10 nM of PD-L1, 1 nM of europium anti-human IgG, and 20 nM of anti-His-allophycocyanin. Activity data were fitted using GraphPad Prism 5.0 software to derive IC50 values for inhibitors.
The IC50 values of the compounds exemplified in the examples are expressed in the following manner: IC50: +: ≤100 nM; ++: 100 nM˜1000 nM; +++: >1000 nM. The data of the example compounds obtained using the PD-1/PD-L1 homogeneous time-resolved fluorescence (HTRF) binding assay described in Example A were provided in Table 1.

Chain of PD-1/PD-L1 (Q9NZQ7 19-238): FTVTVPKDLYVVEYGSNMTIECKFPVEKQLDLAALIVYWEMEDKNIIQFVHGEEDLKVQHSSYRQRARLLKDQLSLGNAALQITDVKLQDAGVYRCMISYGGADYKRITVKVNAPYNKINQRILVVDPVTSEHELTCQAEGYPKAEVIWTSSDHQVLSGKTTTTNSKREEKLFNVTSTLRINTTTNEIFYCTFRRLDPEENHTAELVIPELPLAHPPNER

IC50 [nM] | Compound
≤ 100 | N#Cc1c2c(cc3nc(-c4cccc(-c5ccc6c(c5)OCCO6)c4Cl)oc13)[C@H](NCCC(=O)O)CC2 [Compound 050]
≤ 100 | N#Cc1c2c(cc3nc(-c4cccc(-c5ccc6c(c5)OCCO6)c4Cl)oc13)[C@H](N1CC[C@@H](C(=O)NS(=O)(=O)C3CC3)C1)CC2 [Compound 025]
≤ 100 | N#Cc1c2c(cc3nc(-c4cccc(-c5ccc6c(c5)OCCO6)c4Cl)oc13)[C@@H](N1CC[C@@H](C(=O)O)C1)CC2 [Compound 026]
≤ 100 | Cc1c(-c2ccc3c(c2)OCCO3)cccc1-c1cc2cc3c(c(C#N)c2o1)CC[C@H]3N1CC[C@@H](C(=O)O)C1 [Compound 013]
≤ 100 | Cc1c(-c2ccc3c(c2)OCCO3)cccc1-c1nc2cc3c(c(C#N)c2o1)CC[C@H]3NCCC(=O)O [Compound 049]
≤ 100 | Cc1c(-c2ccc3c(c2)OCCO3)cccc1-c1nc2cc3c(c(C#N)c2o1)CC[C@H]3N1CC[C@@H](C(=O)O)C1 [Compound 047]
≤ 100 | O=C(O)[C@@H]1CCN([C@@H]2CCc3c2cc2cc(-c4cccc(-c5ccccc5)c4Cl)oc2c3F)C1 [Compound 005]
